Measurements as given in ChEMBL document CHEMBL1201862, “PubChem BioAssay data set” (2004).
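Dose response: 5 concentrations. Exposure: 48 h. Format: 96-well plates. Endpoint: linear interpolation; highest concentration if not reached. At the GI50, growth is halved.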 Activity calls are given as the source filed them. Rule as the data show it: active = GI50 up to about 1.1 µM and inactive = higher.

Columns and labels:
Assay in all cases: NCI anticancer screen, dose series, 48 h
786-0 = tested on: 786-0
CCRF-CEM = tested on: CCRF-CEM
Hs-578T = tested on: Hs-578T
MDA-MB-435 = tested on: MDA-MB-435
NCI-H226 = tested on: NCI-H226
NCI-H23 = tested on: NCI-H23
NCI-H460 = tested on: NCI-H460
NCI/ADR-RES = tested on: NCI/ADR-RES
OVCAR-8 = tested on: OVCAR-8
RPMI-8226 = tested on: RPMI-8226
RXF 393 = tested on: RXF 393
SK-MEL-2 = tested on: SK-MEL-2
SK-MEL-5 = tested on: SK-MEL-5
SK-OV-3 = tested on: SK-OV-3
T47D = tested on: T47D
UO-31 = tested on: UO-31
ACHN = tested on: ACHN
PC-3 = tested on: PC-3
TK-10 = tested on: TK-10
K562 = tested on: K562

Row | SMILES | GI50 (786-0) | GI50 (CCRF-CEM) | GI50 (Hs-578T) | GI50 (MDA-MB-435) | GI50 (NCI-H226) | GI50 (NCI-H23) | GI50 (NCI-H460) | GI50 (NCI/ADR-RES) | GI50 (OVCAR-8) | GI50 (RPMI-8226) | GI50 (RXF 393) | GI50 (SK-MEL-2) | GI50 (SK-MEL-5) | GI50 (SK-OV-3) | GI50 (T47D) | GI50 (UO-31) | GI50 (ACHN) | GI50 (PC-3) | GI50 (TK-10) | GI50 (K562)
1 | CCOC(=O)C1(C(=O)OCC)C=C(c2ccccc2)N(C2OC(COC(C)=O)C(OC(C)=O)C(OC(C)=O)C2OC(C)=O)C1=S (centres undefined) | > 100 µM (inactive) | 33.9 µM (inactive) | 68.7 µM (inactive) | 54 µM (inactive) | > 100 µM (inactive) | > 100 µM (inactive) | > 100 µM (inactive) | 64.1 µM (inactive) | > 100 µM (inactive) | 17 µM (inactive) | > 100 µM (inactive) | 36.8 µM (inactive) | > 100 µM (inactive) | 70.3 µM (inactive) | > 100 µM (inactive) | 61.5 µM (inactive) |  |  |  | 
2 | CN(c1ccccc1)S(=O)(=O)c1ccc([N+](=O)[O-])cc1 | > 100 µM (inactive) |  |  | > 100 µM (inactive) | > 100 µM (inactive) | 83.4 µM (inactive) | > 100 µM (inactive) | 95.1 µM (inactive) | > 100 µM (inactive) | 61.5 µM (inactive) | > 100 µM (inactive) | > 100 µM (inactive) |  |  | > 100 µM (inactive) | > 100 µM (inactive) | > 100 µM (inactive) | 89.5 µM (inactive) | > 100 µM (inactive) | 
3 | CCOP(=O)(OCC)C(Nc1ccc(Cl)cc1)c1ccc(F)cc1 (centres undefined) | 19.3 µM (inactive) | 29.5 µM (inactive) | 20.8 µM (inactive) | 15.7 µM (inactive) | 25.8 µM (inactive) | 16.3 µM (inactive) | 19.5 µM (inactive) | 22.8 µM (inactive) | 28.8 µM (inactive) | 22.5 µM (inactive) | 21.2 µM (inactive) | 14.6 µM (inactive) | 17.3 µM (inactive) | 41.7 µM (inactive) | 16.6 µM (inactive) | 20.7 µM (inactive) | 28.4 µM (inactive) |  | 42.7 µM (inactive) | 25.5 µM (inactive)
4 | CCOC(=O)C(=CNC(=S)c1ccncc1)C(=O)OCC | > 100 µM (inactive) | > 100 µM (inactive) | > 100 µM (inactive) | > 100 µM (inactive) |  | > 100 µM (inactive) | > 100 µM (inactive) |  |  | > 100 µM (inactive) | > 100 µM (inactive) | > 100 µM (inactive) | > 100 µM (inactive) | > 100 µM (inactive) | > 100 µM (inactive) | > 100 µM (inactive) | > 100 µM (inactive) | > 100 µM (inactive) | > 100 µM (inactive) | > 100 µM (inactive)
5 | S=C(c1c[nH]c2ccccc12)N1CCOCC1 | > 100 µM (inactive) | > 100 µM (inactive) | 22.3 µM (inactive) | > 100 µM (inactive) | 24.6 µM (inactive) | > 100 µM (inactive) | > 100 µM (inactive) | > 100 µM (inactive) | > 100 µM (inactive) | > 100 µM (inactive) | > 100 µM (inactive) | > 100 µM (inactive) | > 100 µM (inactive) | > 100 µM (inactive) |  | 45.8 µM (inactive) | > 100 µM (inactive) | > 100 µM (inactive) | > 100 µM (inactive) | > 100 µM (inactive)
6 | CC(=O)Nc1nnc(S(C)(=O)=O)s1 | > 100 µM (inactive) | > 100 µM (inactive) |  | > 100 µM (inactive) | > 100 µM (inactive) | > 100 µM (inactive) | > 100 µM (inactive) | > 100 µM (inactive) | > 100 µM (inactive) | > 100 µM (inactive) | > 100 µM (inactive) |  |  |  |  | > 100 µM (inactive) | > 100 µM (inactive) | > 100 µM (inactive) | > 100 µM (inactive) | > 100 µM (inactive)
7 | O[C@]12c3ccccc3C1CCCC2N1CCOCC1 (some centres undefined) | > 100 µM (inactive) | > 100 µM (inactive) |  |  | > 100 µM (inactive) | > 100 µM (inactive) | > 100 µM (inactive) |  | > 100 µM (inactive) | > 100 µM (inactive) | > 100 µM (inactive) | > 100 µM (inactive) | > 100 µM (inactive) | > 100 µM (inactive) |  | > 100 µM (inactive) | > 100 µM (inactive) |  | > 100 µM (inactive) | > 100 µM (inactive)
8 | C=C(CCC/C(C)=C/C=C/[C@H](C)CCCc1ccoc1)C[C@@H]1OC(=O)[C@H](C)[C@@H]1O | 11.2 µM (inactive) | 11.9 µM (inactive) |  | 9.06 µM (inactive) | 8.18 µM (inactive) | 8.69 µM (inactive) | 12.5 µM (inactive) | 9.71 µM (inactive) | 11.9 µM (inactive) | 10.8 µM (inactive) | 6.67 µM (inactive) | 9.14 µM (inactive) | 8.04 µM (inactive) | 8.15 µM (inactive) | 6.97 µM (inactive) | 7.69 µM (inactive) | 9.18 µM (inactive) | 8.65 µM (inactive) | 10.6 µM (inactive) | 13.7 µM (inactive)
9 | Cc1cc2oc(=O)[nH]c(=S)c2c(C)c1C | > 100 µM (inactive) | > 100 µM (inactive) |  |  | > 100 µM (inactive) | > 100 µM (inactive) | > 100 µM (inactive) |  | > 100 µM (inactive) | > 100 µM (inactive) | > 100 µM (inactive) | > 100 µM (inactive) |  | > 100 µM (inactive) |  | > 100 µM (inactive) | > 100 µM (inactive) |  | > 100 µM (inactive) | > 100 µM (inactive)
10 | Clc1ccc(-n2nnc(C3=NCCN3)c2-c2ccccc2)cc1 | > 100 µM (inactive) | > 100 µM (inactive) |  |  | > 100 µM (inactive) | > 100 µM (inactive) | > 100 µM (inactive) |  | > 100 µM (inactive) | > 100 µM (inactive) | > 100 µM (inactive) | > 100 µM (inactive) | 86.9 µM (inactive) | > 100 µM (inactive) |  | 43.3 µM (inactive) | > 100 µM (inactive) |  | 66.8 µM (inactive) | > 100 µM (inactive)
11 | CC(=O)COC(=O)CC(C)=O | > 100 µM (inactive) | > 100 µM (inactive) |  |  | > 100 µM (inactive) | > 100 µM (inactive) | > 100 µM (inactive) |  | > 100 µM (inactive) | > 100 µM (inactive) | > 100 µM (inactive) | > 100 µM (inactive) |  | > 100 µM (inactive) |  | > 100 µM (inactive) | > 100 µM (inactive) |  | > 100 µM (inactive) | > 100 µM (inactive)
12 | NC(CC(=O)OCc1ccccc1)C(=O)OCc1ccccc1 (centres undefined) | > 100 µM (inactive) | > 100 µM (inactive) | 60.4 µM (inactive) | > 100 µM (inactive) |  | > 100 µM (inactive) | > 100 µM (inactive) | > 100 µM (inactive) | > 100 µM (inactive) | > 100 µM (inactive) |  | > 100 µM (inactive) | > 100 µM (inactive) |  | > 100 µM (inactive) | 69.5 µM (inactive) | > 100 µM (inactive) | > 100 µM (inactive) | > 100 µM (inactive) | 
13 | C=C1C(=O)OC2/C=C(\C)C3OC3/C=C(/C(=O)OC)C(OC(C)=O)C(OC(=O)C(C)(O)C(C)OC(C)=O)C12 (centres undefined) | 2.22 µM (inactive) | 0.305 µM (active) | 6.21 µM (inactive) | 2.03 µM (inactive) | 6.89 µM (inactive) | 2.5 µM (inactive) | 3.45 µM (inactive) |  | 1.4 µM (inactive) | 0.92 µM (active) | 0.501 µM (active) | 4.59 µM (inactive) | 2.5 µM (inactive) | 18.7 µM (inactive) | 6.3 µM (inactive) | 6.52 µM (inactive) | 3.78 µM (inactive) | 3.96 µM (inactive) | 1.83 µM (inactive) | 0.741 µM (active)
14 | CN(CCc1ccccn1)/[N+]([O-])=N/O.CNCCc1ccccn1 | > 100 µM (inactive) | > 100 µM (inactive) |  |  | > 100 µM (inactive) | > 100 µM (inactive) | > 100 µM (inactive) |  | > 100 µM (inactive) | > 100 µM (inactive) | > 100 µM (inactive) | > 100 µM (inactive) | > 100 µM (inactive) |  |  | > 100 µM (inactive) | > 100 µM (inactive) |  |  | > 100 µM (inactive)
15 | C=CCN1C[C@@H](C)N([C@@H](c2ccccc2)c2ccc(C(=O)N(CC)CC)cc2)C[C@@H]1C | > 100 µM (inactive) |  | > 100 µM (inactive) | > 100 µM (inactive) | 81.7 µM (inactive) | > 100 µM (inactive) |  | > 100 µM (inactive) | > 100 µM (inactive) | 95.5 µM (inactive) |  | > 100 µM (inactive) | > 100 µM (inactive) | > 100 µM (inactive) | 65.8 µM (inactive) | > 100 µM (inactive) | > 100 µM (inactive) | > 100 µM (inactive) |  | 
16 | COC(=O)[C@]12CSC[C@H]1C[C@H](c1ccccc1OC)N2 | > 100 µM (inactive) | > 100 µM (inactive) |  | > 100 µM (inactive) | > 100 µM (inactive) | > 100 µM (inactive) | > 100 µM (inactive) | > 100 µM (inactive) | > 100 µM (inactive) | > 100 µM (inactive) | > 100 µM (inactive) | > 100 µM (inactive) | > 100 µM (inactive) | > 100 µM (inactive) | > 100 µM (inactive) | > 100 µM (inactive) | > 100 µM (inactive) | > 100 µM (inactive) | > 100 µM (inactive) | > 100 µM (inactive)
17 | O=C(c1ccc(Cl)cc1)c1ccc(OCCCOc2ccc(C(=O)c3ccc(Cl)cc3)cc2Cl)c(Cl)c1 | > 100 µM (inactive) | > 100 µM (inactive) |  |  | > 100 µM (inactive) | > 100 µM (inactive) | > 100 µM (inactive) |  | > 100 µM (inactive) | > 100 µM (inactive) | > 100 µM (inactive) | > 100 µM (inactive) | > 100 µM (inactive) | > 100 µM (inactive) |  |  | > 100 µM (inactive) |  | > 100 µM (inactive) | > 100 µM (inactive)
